For data set [1] the following is noted: 298.15 K; 101.33 kPa; Liquid; Vibrating tube method.
Data set [2] in a line: xn = mol fraction of the nth substance listed. As to conditions: 298.15 K, 101 kPa, Liquid, Vibrating tube method.

Values joined by “and” are separate entries in the source; they are usually repeats but may differ in a detail not shown here. Equal entries are not always repeated. Numbers after ± are expanded uncertainties.

What is called mass density is the mass of a sample divided by its volume. For the compound `C1CCCCC1` [cyclohexane], the mass density in data set [1] is 773.814 ± 2 kg/m3.

`CN(C)C=O` [dimethylformamide]: in data set [1], the mass density is listed as 943.827 ± 2 kg/m3.

In the case of `CN(C)C=O` [dimethylformamide] + C1CCCCC1, the mass density in data set [2] (x1 = 0.0013) turned out to be 773.912 ± 2 kg/m3; in data set [2] (x1 = 0.0032) it was 774.059 ± 2 kg/m3; in data set [2] (x1 = 0.00735), 774.39 ± 2 kg/m3; in data set [2] (x1 = 0.00767), 774.433 ± 2 kg/m3; in data set [2] (x1 = 0.0142) it was 774.963 ± 2 kg/m3; in data set [2] (x1 = 0.0191) it was 775.4 ± 2 kg/m3. Moreover, the mass density is 777.361 ± 2 kg/m3 in data set [2] (x1 = 0.0404); 778.28 ± 2 kg/m3 and 778.287 ± 2 kg/m3 and 778.289 ± 2 kg/m3 in data set [2] (x1 = 0.05); 778.816 ± 2 kg/m3 in data set [2] (x1 = 0.0554); 906.747 ± 2 kg/m3 in data set [2] (x1 = 0.8496); 906.951 ± 2 kg/m3 in data set [2] (x1 = 0.8504); 907.513 ± 2 kg/m3 in data set [2] (x1 = 0.8533). For the same compound, the mass density is on record as 918.584 ± 2 kg/m3 in data set [2] (x1 = 0.8999), 924.576 ± 2 kg/m3 in data set [2] (x1 = 0.9245) and 935.786 ± 2 kg/m3 in data set [2] (x1 = 0.969).

As to `CCO` [ethanol], the mass density in data set [1] turned out to be 785.106 ± 2 kg/m3.

The values above are taken from the NIST ThermoML archive (doi:10.1016/j.fluid.2014.01.046).
